Measurements as given in PubChem BioAssay (NCI).
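96-well plates; 48 h exposure; 5 concentrations. Endpoints by linear interpolation between flanking doses. Not reached: highest tested concentration assigned. The concentration for 50% growth inhibition is given as GI50. The concentration for full growth arrest is given as TGI.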 Where a SMILES comes first, the peptide text is derived from it. The star is where a group is joined. Boc = CC(C)(C)OC(=O)*

Columns and labels:
Test in all cases: DTP human tumour cell line panel, 48 h
UO-31 renal = system: UO-31 renal
SK-MEL-2 melanoma = system: SK-MEL-2 melanoma
OVCAR-8 ovarian = system: OVCAR-8 ovarian
IGROV1 ovarian = system: IGROV1 ovarian
NCI-H460 lung = system: NCI-H460 lung
PC-3 prostate = system: PC-3 prostate
HT29 colon = system: HT29 colon
COLO 205 colon = system: COLO 205 colon
HCT-15 colon = system: HCT-15 colon
MDA-N = system: MDA-N

Row | SMILES | GI50 (UO-31 renal) | TGI (UO-31 renal) | GI50 (SK-MEL-2 melanoma) | TGI (SK-MEL-2 melanoma) | GI50 (OVCAR-8 ovarian) | TGI (OVCAR-8 ovarian) | GI50 (IGROV1 ovarian) | TGI (IGROV1 ovarian) | GI50 (NCI-H460 lung) | TGI (NCI-H460 lung) | GI50 (PC-3 prostate) | TGI (PC-3 prostate) | GI50 (HT29 colon) | TGI (HT29 colon) | GI50 (COLO 205 colon) | TGI (COLO 205 colon) | GI50 (HCT-15 colon) | TGI (HCT-15 colon) | TGI (MDA-N)
1 | CCOC(=O)c1c2c(n3ccc(NC(=O)OC(C)(C)C)cc13)C(=O)c1ncccc1C2=O | 15.3 nM | 0.397 µM | 0.44 µM | 9.24 µM | 148 nM | 2.09 µM | 152 nM | 2.28 µM | 0.0273 µM | 0.123 µM | 0.25 µM | 2.05 µM | 638 nM | 2.22 µM | 0.352 µM | 1.56 µM | 19.5 nM | 1.49 µM | 
2 | CN1C/C(=C\c2ccc(Cl)cc2)C(=O)/C(=C/c2ccc(Cl)cc2)C1 |  |  |  | > 100 µM |  | 0.605 µM |  | > 100 µM |  | 4.59 µM |  | > 100 µM |  | 0.824 µM |  | 5.62 µM |  |  | 8.86 µM
3 | CCOC(=O)c1c2c(n(-c3ccc(OC)cc3)c1C)C(=O)C(=O)c1ccccc1-2 |  |  |  | > 21.8 µM |  | 2.76 µM |  | 12.7 µM |  | 5.36 µM |  | 5.7 µM |  | > 22.7 µM |  | 5.31 µM |  | 8.13 µM | 
4 | CO/C(=N\N=C\c1ccc(Cl)cc1Cl)c1ccncc1 |  | > 10 µM |  | > 10 µM |  | > 10 µM |  |  |  | > 10 µM |  | > 10 µM |  | > 10 µM |  | > 10 µM |  | > 10 µM | > 10 µM
5 | N=S(=O)(c1ccccc1)c1ccccc1[N+](=O)[O-] (stereo unspecified) |  | > 100 µM |  | > 100 µM |  | > 100 µM |  | > 100 µM |  | > 100 µM |  |  |  | > 100 µM |  | > 100 µM |  | > 100 µM | 
6 | O=c1[nH]c(=O)n(COCc2ccccc2)c2ccc(Br)cc12 |  | > 100 µM |  | > 100 µM |  | > 100 µM |  | > 100 µM |  | > 100 µM |  |  |  | > 100 µM |  | > 100 µM |  | > 100 µM | > 100 µM
7 | COc1cccc2c1C1(O)C2CCCC12OCCCO2 (stereo unspecified) |  | > 100 µM |  | > 100 µM |  | > 100 µM |  | > 100 µM |  | > 100 µM |  |  |  | > 100 µM |  | > 100 µM |  | > 100 µM | 
8 | CC(=NCCN(CCN=C(C)c1c(O)cc(C)oc1=O)CCN=C(C)c1c(O)cc(C)oc1=O)c1c(O)cc(C)oc1=O |  | > 100 µM |  |  |  | > 100 µM |  | > 100 µM |  | > 100 µM |  | > 100 µM |  | > 100 µM |  | > 100 µM |  | > 100 µM | > 100 µM
9 | O=C(NCCCCNCCCNC(=O)c1ccccc1)c1ccccc1 |  | > 100 µM |  | > 100 µM |  | > 100 µM |  | > 100 µM |  | > 100 µM |  | > 100 µM |  | > 100 µM |  | > 100 µM |  | > 100 µM | 
10 | C=C(CC(=O)Nc1ccc(C(=O)OC)o1)C(=O)OC |  | 39.5 µM |  | 46.7 µM |  | > 100 µM |  | 55.5 µM |  | > 100 µM |  | 58.9 µM |  | 70.2 µM |  | 41.1 µM |  | 59.1 µM | 
11 | CC(=Nc1c2ccccc2nc2ccccc12)N(C)C |  | 54.6 µM |  | 46 µM |  | 52.4 µM |  | > 100 µM |  |  |  | 46.8 µM |  | 27.4 µM |  | 25.2 µM |  | > 100 µM | 90.3 µM
12 | CCN(CC)C(=S)N/N=C/c1ccccn1 |  | 2.1 µM |  | > 100 µM |  |  |  | 11.7 µM |  |  |  | > 100 µM |  | > 100 µM |  | > 53.9 µM |  | > 100 µM | > 100 µM
13 | OCC(O)C1OC2CC1Nc1ccccc1N2 (stereo unspecified) |  | > 100 µM |  | > 100 µM |  | > 100 µM |  | > 100 µM |  | > 100 µM |  | > 100 µM |  | > 100 µM |  | > 100 µM |  | > 100 µM | 
14 | CC(=O)NC1C(OCc2ccccc2)OC(CO)C(O)C1OCC(=O)NC(C)C(=O)NC(CCC(=O)NCCCCCNc1c2ccccc2nc2cccc([N+](=O)[O-])c12)C(N)=O (stereo unspecified) |  |  |  | < 0.0001 µM |  | 0.017 µM | 12.4 nM |  |  |  |  | < 0.0001 µM |  | < 0.0001 µM |  | < 0.0001 µM |  | < 0.0001 µM | 
15 | COC(=O)C(Cc1c[nH]c2ccccc12)NC(=O)C(Cc1c[nH]c2ccccc12)NC(=O)C(Cc1c[nH]c2ccccc12)NC(=O)C(Cc1c[nH]c2ccccc12)NC(=O)OC(C)(C)C (stereo unspecified) (Boc-WWWW-OMe; configuration not given here) |  | > 100 µM |  |  |  | > 100 µM |  | > 100 µM |  | > 100 µM |  | 96.5 µM |  | 49 µM |  |  |  | > 100 µM | 55.3 µM
16 | O=C(NC1(C(=O)NNc2nnc(-c3ccccc3)c(-c3ccccc3)n2)C(c2ccccc2)C(c2ccccc2)=NN1c1ccccc1)c1ccccc1 (stereo unspecified) |  | > 100 µM |  | > 100 µM |  | > 100 µM |  |  |  | > 100 µM |  | > 100 µM |  | > 100 µM |  | > 100 µM |  | > 100 µM | 
17 | COC(=O)/C=C\C(C#N)(C#N)N=Cc1ccc(C)s1 |  | 3.53 µM |  | 20.5 µM |  | 9.97 µM |  | 4.94 µM |  | 40.7 µM |  | 6.72 µM |  |  |  | 2.93 µM |  | 3.66 µM | 6.94 µM
18 | O=c1[nH]c(=O)n(COCc2ccccc2)c2ccc([N+](=O)[O-])cc12 |  | > 100 µM |  | > 100 µM |  | > 100 µM |  | > 100 µM |  |  |  | > 100 µM |  | > 100 µM |  | > 100 µM |  | > 100 µM | > 100 µM
19 | [N-]=[N+]=NC1CC(n2cc(COCC(F)(F)F)c(=O)[nH]c2=O)OC1CO (stereo unspecified) |  | > 100 µM |  | > 100 µM |  | > 100 µM |  | > 100 µM |  | > 100 µM |  |  |  | > 100 µM |  | > 100 µM |  |  | 
20 | Nc1ccccc1NC(=O)CCCCCCC(=O)Nc1ccc2c(c1)/C(=C/c1ccc[nH]1)C(=O)N2 | 2210 nM | > 100 µM | 5.73 µM | > 100 µM | 5590 nM | > 100 µM | 49800 nM | > 100 µM | 22.4 µM | > 100 µM | 6.92 µM | > 100 µM | > 100000 nM | > 100 µM | 43.8 µM | > 100 µM | > 100000 nM | > 100 µM | 
21 | CC1(C)[C@@H](Cn2cnc3c(=O)[nH]c(N)nc32)CC[C@@]1(C)CO |  | > 100 µM |  | > 100 µM |  |  |  |  |  |  |  | > 100 µM |  |  |  |  |  | > 100 µM | > 100 µM
22 | CC(C)(C)OC(=O)NC(Cc1ccc(O)cn1)C(N)=O (stereo unspecified) |  | > 100 µM |  |  |  | > 100 µM |  | > 100 µM |  | > 100 µM |  | > 100 µM |  | > 100 µM |  | > 100 µM |  | > 100 µM | > 100 µM
